Structures can show the parent of a compound that is named as a salt.
Legend:
[1] = Stability in isolated mouse plasma; type: in vitro ADME
Text: (§1) Levels of NRH and other NAD-related metabolites in biological samples were obtained by using a cold liquid-liquid extraction using a mixture of methanol:water:chloroform in 5:3:5 (v/v), from which the polar phase was recovered for hydrophilic interaction ultra-high performance liquid chromatography mass spectrometry (UHPLC-MS) analysis. The UHPLC consisted of a binary pump, a cooled autosampler, and a column oven (DIONEX Ultimate 3000 UHPLC+ Focused, Thermo Scientific), connected to a triple quadrupole spectrometer (TSQ Vantage, Thermo Scientific) equipped with a heated electrospray ionisation (H-ESI) source. Of each sample, 2 μL were injected into the analytical column (2.1 mm×150 mm, 5 μm pore size, 200 Å HILICON iHILIC®-Fusion(P)), guarded by a pre-column (2.1 mm×20 mm, 200 Å HILICON iHILIC®-Fusion(P) Guard Kit) operating at 35° C. The mobile phase (10 mM ammonium acetate at pH 9, A, and acetonitrile, B) was pumped at 0.25 mL/min flow rate over a linear gradient of decreasing organic solvent (0.5-16 min, 90-25% B), followed by re-equilibration for a total run time of 30 min. The MS operated in positive mode at 3500 V with multiple reaction monitoring (MRM). The software Xcalibur v4.1.31.9 (Thermo Scientific) was used for instrument control, data acquisition and processing. Retention time and mass detection was confirmed by authentic standards.
(§2) NR degradation to NAM has been proposed as a limitation for its pharmacological efficacy. To evaluate whether NRH was also susceptible to degradation to NAM, we spiked NRH or NR in isolated mouse plasma. […] We also tested the stability of NRH in other matrixes. […] Finally, we also certified NRH stability in water (pH=7, at room temperature) for 48 h.

[2] = Stability in FBS supplemented media; type: in vitro ADME
Procedure: as §2

[3] = Tissue NAD+ and circulating metabolites after IP injection in mice; type: in vivo; details: for NAD+ levels in liver, muscle and kidney: after 1 h
Text: as §1
The above results prompted us to test whether NRH could act as an effective NAD+ precursor in vivo. For this, we first intraperitoneally (IP) injected mice with either NR or NRH (500 mg/kg). […] Importantly, NRH was detectable in circulation after IP injection.

[4] = type: in vivo, mice
Procedure: 8 week-old C57BI/6NTac mice were orally gavaged with either saline (as vehicle), NR (500 mg/kg) or NRH (500 mg/kg). After 1 hour, liver, skeletal muscle and kidney NAD^+ levels were evaluated. All results are expressed as mean+/−SEM of n=5 mice per group. * indicates statistical difference at p<0.05 vs. vs. saline-treated mice. # indicates statistical difference at p<0.05 vs. NR treated mice.
as §1
Oral administration of NRH led to very similar results to those observed after IP administration. […] NRH was detectable in plasma 1 h after oral administration. In contrast, NR levels were undetectable at 1 h after NR administration.

NRK1 = assay: NAD+ levels in primary hepatocytes from control or NRK1 knockout mice; details: 1 hour of treatment, NRK1 knockout mouse hepatocytes
AML12 hepatocytes = assay: Intracellular NAD+ levels in AML12 hepatocytes after NRH or NR treatment; type: cell-based
Text: as §1
Even at such relatively low dose, NRH achieved similar increases in intracellular NAD+ levels to those reached with NR at 50-fold higher concentrations.
NRH actions were also extremely fast (FIG. 3), as significant increases in NAD+ levels were observed within 5 minutes after NRH treatment.

C2C12 myotubes = assay: NAD+ levels in C2C12 myotubes after NRH treatment; type: cell-based
Procedure: (§3) The ability of NRH to potently increase NAD+ was tested as well in other cell type models.

INS1-cells = assay: NAD+ levels in INS1-cells after NRH treatment; type: cell-based
Procedure: as §3

3T3 fibroblasts = assay: NAD+ levels in 3T3 fibroblasts after NRH treatment; type: cell-based
Procedure: as §3

[5] = system: equilibrative nucleoside transporters (ENTs); assay: NRH-induced NAD+ synthesis with ENT-mediated transport blocked by NBTI; type: cell-based; details: in the presence of NBTI (ENT blocker)
Text: In order to understand the exact path by which NRH synthesizes NAD+, we initially evaluated whether NRH, could be transported into the cell by equilibrative nucleoside transporters (ENTs).

NAMPT = target: T1, NAMPT (Mus musculus, UniProt Q99KQ4); assay: NRH-induced NAD+ synthesis with NAMPT inhibitor FK866; type: cell-based
T1 construct: endogenous in cells; AML12 inferred

adenosine kinase (AK) = target: T2, adenosine kinase (AK) (Mus musculus, UniProt P55264); assay: NRH-induced NAD+ synthesis with adenosine kinase inhibitors; type: cell-based
T2 construct: endogenous in cells; host or cells: AML12 cells
Procedure: AML12 cells were treated with an adenosine kinase inhibitor (5-IT; […]) for 1 hour prior to NRH treatment at the doses indicated. Then, 1 hour later, acidic extracts were obtained to measure NAD^+ levels. All values in the figure are expressed as mean+/−SEM of 3 independent experiments. * indicates statistical difference at p<0.05 vs. the respective vehicle treated group.
Considering the molecular structure of NRH, we reasoned that an alternative nucleoside kinase could be responsible for the phosphorylation of NRH. Confirming this expectation, the adenosine kinase (AK) inhibitor 5-iodotubercidin (5-IT) fully ablated the action of NRH. The role of AK in NRH-mediated NAD+ synthesis was confirmed using a second, structurally different, AK inhibitor, ABT-702. Metabolomic analyses further confirmed that upon inhibition of AK, the generation of NMNH, NADH and NAD+ was fully blunted, even if NRH was effectively entering the cell.

NMNAT = assay: NRH-induced NAD+ synthesis with NMNAT inhibitor gallotannin; type: cell-based
Text: As a follow-up step, NMNAT enzymes could catalyze the transition from NMNH to NADH. […] Yet, part of the NRH action remained after gallotannin treatment when NRH was used at maximal doses.

zebrafish embryos = assay: Doxorubicin-induced toxicity in zebrafish larvae; type: in vivo; details: Doxorubicin 25 uM with NRH 500 uM, up to 60 h
Procedure: 1 day post fertilization zebrafish embryos were placed in 24 well plates and treated with Doxorubicin (25 uM), either alone or in combination with NRH (500 uM). Untreated group was exposed to DMSO (0.05%). Health of the larvae was monitored frequently, and dead larvae were scored overtime, up to 60 h treatment. Results are expressed as percent of survival of n=60 embryos per group. Statistics represented were calculated by pairwise comparison using log-rank test and p-value adjustment was performed by Bonferroni correction. p-Value for median survival of untreated vs Doxorubicin <0.0001, p-value Doxorubicin vs Doxorubicin+NRH <0.0001.
Doxorubicin is a chemotherapeutic agent that is well established to be cardiotoxic. This drug has also been described to induce cardiomyopathy in zebrafish larvae. 1 day post fertilization zebrafish embryos were placed in 24 well plates and treated with Doxorubicin (25 uM), either alone or in combination with NRH (500 uM). Untreated group was exposed to DMSO (0.05%). Health of the larvae was monitored frequently, and dead larvae were scored overtime, up to 60 h treatment. Results are expressed as percent of survival of n=60 embryos per group.

zebrafish larvae = assay: Ethanol-induced cardiac edema in zebrafish larvae; type: in vivo; details: 2% Ethanol during 20 h, NRH 500 uM co-treatment, 3 days post fertilization
Procedure: Phenotypic scoring of cardiac edema severity in zebrafish larvae at 3 days post fertilization exposed to 2% Ethanol during 20 h with or without NRH (500 uM) co-treatment (untreated, n=60; Ethanol, n=73; Ethanol +NRH, n=72). Statistics represented were calculated by non-parametric Chi-square test without p-value adjustment. **** p-Value<0.0001, * p-Value=0.0275.
Phenotypic scoring of cardiac edema severity in zebrafish larvae at 3 days post fertilization exposed to 2% Ethanol during 20 h with or without NRH (500 uM) co-treatment (untreated, n=60; Ethanol, n=73; Ethanol+NRH, n=72). This indicates NRH protects against ethanol-induced cardiac edema in Zebrafish.

H9C2 cardiomyocytes = assay: Oxidative stress-induced cardiomyocyte cell death; type: cell-based; details: H2O2 0.25 mM or 0.5 mM for 24 hours, NRH 0.1 mM
Procedure: H9C2 cardiomyocytes were differentiated for 6 days and then were treated with hydrogen peroxide (H2O2; at either 0.25 mM or 0.5 mM) for 24 hrs in the presence or absence of NRH (0.1 mM). PBS was used as vehicle for NRH. After 24 hrs, cell viability was evaluated by lumiscence using a commercial kit (Cell Title-Glow; Promega). All results are expressed as meand+/−SEM of n=6 experiments. * indicates P<0.05 vs. the respective vehicle treated group.
H9C2 cardiomyocytes were differentiated for 6 days and then were treated with hydrogen peroxide (H2O2; at either 0.25 mM or 0.5 mM) for 24 hours in the presence or absence of NRH (0.1 mM). PBS was used as vehicle for NRH. After 24 hours, cell viability was evaluated by lumiscence using a commercial kit (Cell Title-Glow; Promega).

T2 sequence (P55264 whole entry): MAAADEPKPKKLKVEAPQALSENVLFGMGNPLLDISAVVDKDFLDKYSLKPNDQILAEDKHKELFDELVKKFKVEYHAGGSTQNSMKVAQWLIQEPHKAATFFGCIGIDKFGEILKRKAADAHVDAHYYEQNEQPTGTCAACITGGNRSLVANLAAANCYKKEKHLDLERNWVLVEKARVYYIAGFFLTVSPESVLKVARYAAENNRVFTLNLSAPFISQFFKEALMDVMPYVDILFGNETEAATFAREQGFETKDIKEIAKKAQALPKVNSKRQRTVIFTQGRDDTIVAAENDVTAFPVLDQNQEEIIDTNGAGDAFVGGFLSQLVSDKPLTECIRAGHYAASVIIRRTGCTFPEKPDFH
T1 sequence (Q99KQ4 whole entry): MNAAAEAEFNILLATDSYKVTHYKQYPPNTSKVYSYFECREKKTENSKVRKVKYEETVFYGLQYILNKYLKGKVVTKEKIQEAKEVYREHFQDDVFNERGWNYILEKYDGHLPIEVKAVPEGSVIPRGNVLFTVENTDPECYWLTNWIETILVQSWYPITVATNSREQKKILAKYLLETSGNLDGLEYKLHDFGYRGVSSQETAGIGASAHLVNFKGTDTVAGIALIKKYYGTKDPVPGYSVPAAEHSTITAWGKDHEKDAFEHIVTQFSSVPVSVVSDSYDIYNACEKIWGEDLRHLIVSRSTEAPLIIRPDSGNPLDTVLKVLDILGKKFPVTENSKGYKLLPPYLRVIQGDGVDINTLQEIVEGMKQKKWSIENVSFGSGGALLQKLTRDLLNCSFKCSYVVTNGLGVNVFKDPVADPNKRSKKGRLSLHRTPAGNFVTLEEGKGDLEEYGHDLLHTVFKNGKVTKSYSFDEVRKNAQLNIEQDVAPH

NC(=O)c1ccc[n+]([C@@H]2O[C@H](CO)[C@@H](O)[C@H]2O)c1 [NR, 1-b-D-ribofuranosyl-3-pyridinecarboxamide salt, reference compound]
compound levels in isolated mouse plasma ([1]; spiked, 2 h of incubation): decayed | generation of NAM in isolated mouse plasma ([1]; spiked, 2 h of incubation): increase in NAM | degradation to NAM in FBS supplemented media [2]: occurs | NAM levels in circulation ([3]; mice, IP 500 mg/kg): highly increased | NAD+ levels in liver, muscle and kidney ([3]; mice, IP 500 mg/kg): increased | circulating NAM after NR relative to after NRH treatment ([4]; C57BI/6NTac, mouse, in vivo, po, 1 h): ~4 fold | administered compound in plasma ([4]; mouse, in vivo, po): undetectable | circulating NAM ([4]; mouse, in vivo, po): large increases | NAD+ levels in NRK1KO derived primary hepatocytes (NRK1): failed to increase NAD+ levels

NC(=O)C1=CN([C@@H]2O[C@H](CO)[C@@H](O)[C@H]2O)C=CC1 [NRH]
intracellular NRH and NMNH (AML12 hepatocytes; 5 minutes after treatment): could be detected | concentration of maximal effects on NAD+ synthesis (AML12 hepatocytes; AML12 hepatocytes): around the millimolar range | time to significant increase in NAD+ levels after treatment (AML12 hepatocytes; AML12 hepatocytes (FIG. 3)): ≤ 5 min | NR concentration needed for similar increase in intracellular NAD+, relative to NRH (AML12 hepatocytes; AML12 hepatocytes, NRH at 10 μM): 50 fold | increase of intracellular NAD+ levels at maximal effect (AML12 hepatocytes; AML12 hepatocytes, around the millimolar range): more than 10 fold | ability to increase intracellular NAD+ (AML12 hepatocytes; AML12 hepatocytes, compared with NR): superior to that of NR | concentration at which NAD+ levels were significantly increased (AML12 hepatocytes; AML12 hepatocytes, dose-response (FIG. 2)): 10 µM | increase in intracellular NR and NMN (AML12 hepatocytes; after NRH treatment, compared with NR treatment): greater than that triggered by NR itself | NAD+ levels (C2C12 myotubes): highly elevated | NAD+ levels (INS1-cells): highly elevated | NAD+ levels (3T3 fibroblasts): highly elevated | capacity as extracellular NAD+ precursor [5]: largely lost its capacity | dependence of action on NAMPT (NAMPT): NAMPT-independent | formation of NR and NMN after NRH treatment with 5-IT (adenosine kinase (AK); 5-IT treatment): prevented the formation of NR and NMN | action of NRH on NAD+ with 5-iodotubercidin (5-IT) (adenosine kinase (AK); AML12 cells, 5-IT 10 mM for 1 hour prior to NRH, NAD+ 1 hour later): fully ablated | generation of NMNH, NADH and NAD+ upon inhibition of AK (adenosine kinase (AK); metabolomic analyses): fully blunted | role of AK in NRH-mediated NAD+ synthesis with ABT-702 (adenosine kinase (AK); second, structurally different AK inhibitor): confirmed | NAD+ synthesis after NRH treatment with gallotannin (NMNAT; NMNAT inhibitor gallotannin, part of action remained at maximal doses (0.5 mM)): largely compromised | NRH action with gallotannin at submaximal doses (NMNAT; submaximal NRH doses): totally blocked | NR production on incubation in isolated plasma [1]: did not lead to NR production | degradation to NAM in FBS supplemented media [2]: did not degrade to NAM | NAD+ levels in liver, muscle and kidney ([3]; mice, IP 500 mg/kg): increased | NAM levels in circulation ([3]; mouse, in vivo, ip, 500 mg/kg): only a very mild increase | NR in circulation after NRH treatment versus after NR injection ([3]; mouse, in vivo, ip, 500 mg/kg): much higher levels | NRH in circulation ([3]; mouse, in vivo, ip, 500 mg/kg): detectable | effect on hepatic NAD+ levels ([4]; mice, oral administration, compared with NR): more potent effect | NRH concentration in plasma ([4]; mouse, in vivo, po): 11.16 ± 1.74 µM | administered compound in plasma ([4]; mouse, in vivo, po): detectable | survival under doxorubicin induced toxicity (zebrafish embryos): rescues | cardiac edema severity (phenotypic scoring) (zebrafish larvae): protects | cell viability under oxidative stress (H9C2 cardiomyocytes): protects
